Results on 56 compounds are retold here after patent publication US8778929B2, “Substituted heteroaryl inhibitors of B-RAF” (Boehringer Ingelheim International GmbH, priority 2008, dated 2014).

Structures are written as SMILES.

The assay concerns the target B-Raf (V600E)-kinase (Homo sapiens, UniProt P15056, V600E). Put plainly: Kinase test B-Raf (V600E). The settings on record: compound concentration 2 μM; 100% = no inhibition, 0% = total inhibition; read-out: % CTL (residual activity of the enzyme relative to DMSO control). Format: biochemical. A digest of the protocol: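 Kinase preincubated with compound (typically 2 μM to 0.119 nM or 0.017 nM, 5% DMSO) 1 h at RT, then reacted 60 min at RT with 250 μM ATP and biotinylated MEK1. Phospho-MEK (Ser217/221) captured on streptavidin, detected by europium time-resolved fluorescence; IC50 from dose-response curves.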

B-Raf (V600E)-kinase, sequence (P15056 whole entry V600E): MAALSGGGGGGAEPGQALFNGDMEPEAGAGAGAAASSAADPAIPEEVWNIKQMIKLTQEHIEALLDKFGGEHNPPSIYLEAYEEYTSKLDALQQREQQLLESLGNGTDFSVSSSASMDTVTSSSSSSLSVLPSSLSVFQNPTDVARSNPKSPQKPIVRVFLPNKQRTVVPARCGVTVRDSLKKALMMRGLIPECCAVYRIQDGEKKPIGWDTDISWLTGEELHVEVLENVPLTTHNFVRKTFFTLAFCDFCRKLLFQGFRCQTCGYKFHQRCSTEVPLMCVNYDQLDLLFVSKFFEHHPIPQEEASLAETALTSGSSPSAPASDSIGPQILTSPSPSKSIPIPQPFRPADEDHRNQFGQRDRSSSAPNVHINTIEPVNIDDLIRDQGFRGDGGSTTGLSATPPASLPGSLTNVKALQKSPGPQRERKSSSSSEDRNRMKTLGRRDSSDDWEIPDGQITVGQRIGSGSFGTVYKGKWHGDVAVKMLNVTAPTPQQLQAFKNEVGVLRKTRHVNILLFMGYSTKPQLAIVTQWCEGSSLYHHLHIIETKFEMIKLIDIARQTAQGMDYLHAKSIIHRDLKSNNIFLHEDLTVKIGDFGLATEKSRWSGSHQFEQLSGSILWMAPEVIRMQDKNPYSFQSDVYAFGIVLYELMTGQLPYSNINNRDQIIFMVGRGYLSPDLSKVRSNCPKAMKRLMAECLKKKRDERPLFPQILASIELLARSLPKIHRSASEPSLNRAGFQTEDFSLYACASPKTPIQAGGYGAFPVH

As to `Cc1ncc(C(=O)Nc2ccc(Cl)c(C(F)(F)F)c2)cc1-n1cc(-c2cncc(N3CCN(C)CC3)c2)nn1` [Example I-142], the remaining activity at 2 µM worked out at 1.5%. Regarding `Cc1ncc(C(=O)Nc2cc(C(C)(C)C)on2)cc1-n1cc(-c2cncc(N3CC[C@@H](N(C)C)C3)c2)nn1` [Example I-143], the remaining activity at 2 µM came out at 2.2%. The same measure for `Cc1ncc(C(=O)Nc2cc(C(F)(F)F)ccn2)cc1-n1cc(-c2cncc(N3CCN(C)CC3)c2)nn1` [Example I-144]: 1.9%. The figure for `Cc1ncc(C(=O)Nc2cc(C(C)(C)C)on2)cc1-n1cc(-c2cncc(N3CC[C@H](N(C)C)C3)c2)nn1` [Example I-145] is 2.2%. The figure for `COc1ccc(NC(=O)c2cnc(C)c(-n3cc(-c4cncc(N5CCN(C)CC5)c4)nn3)c2)cc1C(F)(F)F` [Example I-146] is 2%. Consider `Cc1ncc(C(=O)Nc2ccc(Cl)c(C(C)(C)C)c2)cc1-n1cc(-c2cncc(N3CCN(C)CC3)c2)nn1` [Example I-147], for which the remaining activity at 2 µM was determined as 3.1%. With `Cc1ncc(C(=O)Nc2nc(C(C)(C)C)cs2)cc1-n1cc(-c2cncc(N3CCN(C(C)C)CC3)c2)nn1` [Example I-148], the remaining activity at 2 µM came to 4%.

As to `Cc1ncc(C(=O)Nc2cn(C(C)C)nn2)cc1-n1cc(-c2cncc(N3CCN(C(C)C)CC3)c2)nn1` [Example I-149], the remaining activity at 2 µM was found to be 2.1%.

As to `Cc1ncc(C(=O)Nc2cnn(C(C)C)c2)cc1-n1cc(-c2cncc(N3CCN(C(C)C)CC3)c2)nn1` [Example I-150], the remaining activity at 2 µM is 4.1%.

For the compound `Cc1ncc(C(=O)Nc2cnn(C(C)C)c2C)cc1-n1cc(-c2cncc(N3CCN(C(C)C)CC3)c2)nn1` [Example I-151], the remaining activity at 2 µM came to 4.5%. The same measure for `Cc1ncc(C(=O)Nc2cc(C(F)(F)F)ccn2)cc1-n1cc(-c2cncc(N3CCN(C(C)C)CC3)c2)nn1` [Example I-152]: 2.4%; for `Cc1ncc(C(=O)Nc2nnc(C(C)(C)C)s2)cc1-n1cc(-c2cncc(N3CCN(C(C)C)CC3)c2)nn1` [Example I-153]: 1.8%. The figure for `Cc1ncc(C(=O)Nc2cc(C(C)C)no2)cc1-n1cc(-c2cncc(N3CCN(C(C)C)CC3)c2)nn1` [Example I-154] is 2.9%; for `Cc1ncc(C(=O)Nc2cc(C(C)(C)C)ncn2)cc1-n1cc(-c2cncc(N3CCN(C(C)C)CC3)c2)nn1` [Example I-155] it is 2.6%. Take `CCCN1CCN(c2cncc(-c3cn(-c4cc(C(=O)Nc5cc(C(C)(C)C)on5)cnc4C)nn3)c2)CC1` [Example I-164]: the remaining activity at 2 µM was 9.9%.

With `Cc1ncc(C(=O)Nc2cc(C(C)(C)C)on2)cc1-n1cc(-c2cncc(N3CCN(C4CC4)CC3)c2)nn1` [Example I-165], the remaining activity at 2 µM was determined as 8.9%. As to `Cc1ncc(C(=O)Nc2cc(C(C)(C)C)on2)cc1-n1cc(-c2cncc(N3CCN(C4CCCC4)CC3)c2)nn1` [Example I-166], the remaining activity at 2 µM was 7.9%. Regarding `Cc1ncc(C(=O)Nc2cc(C(C)(C)C)on2)cc1-n1cc(-c2cncc(N3CCN(C(C)(C)C)CC3)c2)nn1` [Example I-167], the remaining activity at 2 µM was 7.9%. The same measure for `Cc1ncc(C(=O)Nc2cc(C(C)(C)C)on2)cc1-n1cc(-c2cncc(N3CCN(CCCO)CC3)c2)nn1` [Example I-168]: 9.8%; for `COCCCN1CCN(c2cncc(-c3cn(-c4cc(C(=O)Nc5cc(C(C)(C)C)on5)cnc4C)nn3)c2)CC1` [Example I-169]: 8.4%; for `CCOCCN1CCN(c2cncc(-c3cn(-c4cc(C(=O)Nc5cc(C(C)(C)C)on5)cnc4C)nn3)c2)CC1` [Example I-170]: 7.5%. The figure for `Cc1ncc(C(=O)Nc2cc(C(C)(C)C)on2)cc1-n1cc(-c2cncc(N3CCN(CC(C)C)CC3)c2)nn1` [Example I-171] is 7.7%. The figure for `CCCCN1CCN(c2cncc(-c3cn(-c4cc(C(=O)Nc5cc(C(C)(C)C)on5)cnc4C)nn3)c2)CC1` [Example I-172] is 8%; for `Cc1ncc(C(=O)Nc2cc(C(C)(C)C)on2)cc1-n1cc(-c2cncc(N3CCN(CC4CCCCC4)CC3)c2)nn1` [Example I-173] it is 2.4%.

Regarding `C=CCN1CCN(c2cncc(-c3cn(-c4cc(C(=O)Nc5cc(C(C)(C)C)on5)cnc4C)nn3)c2)CC1` [Example I-174], the remaining activity at 2 µM was determined as 8.1%.

Consider `Cc1ncc(C(=O)Nc2cc(C(C)(C)C)on2)cc1-n1cc(-c2cncc(N3CCN(CCC#N)CC3)c2)nn1` [Example I-175], for which the remaining activity at 2 µM came to 8.1%.

As to `Cc1ncc(C(=O)Nc2cc(C(C)(C)C)on2)cc1-n1cc(-c2cncc(N3CCN(CC(=O)N(C)C)CC3)c2)nn1` [Example I-176], the remaining activity at 2 µM turned out to be 6.7%. With `Cc1ncc(C(=O)Nc2cc(C(C)(C)C)ncn2)cc1-n1cc(-c2cncc(N3CCN(C)CC3)c2)nn1` [Example I-177], the remaining activity at 2 µM came to 1.9%. The same measure for `Cc1ncc(C(=O)Nc2ccnc(C(C)(C)C)c2)cc1-n1cc(-c2cncc(N3CCN(C)CC3)c2)nn1` [Example I-178]: 2.3%. Turning to `Cc1ncc(C(=O)Nc2cc(C(C)(C)C)on2)cc1-n1cc(-c2cncc(N3CCN(CCO)CC3)c2)nn1` [Example I-179], the remaining activity at 2 µM came to 2.6%. In the case of `Cc1ncc(C(=O)Nc2cc(C(C)(C)C)no2)cc1-n1cc(-c2cncc(N3CCN(C)CC3)c2)nn1` [Example I-180], the remaining activity at 2 µM amounted to 2.9%.

For `Cc1ncc(C(=O)Nc2cc(C(C)(C)C)on2)cc1-n1cc(-c2cncc(N3CCN(CC(F)F)CC3)c2)nn1` [Example I-181], the remaining activity at 2 µM was 2.3%. The same measure for `Cc1ncc(C(=O)Nc2cc(C(C)(C)C)on2)cc1-n1cc(-c2cncc(N3CCN(CC(F)(F)F)CC3)c2)nn1` [Example I-182]: 2.1%; for `Cc1ncc(C(=O)Nc2cc(C(C)(C)C)on2)cc1-n1cc(-c2cncc(N3CCNCC3)c2)nn1` [Example I-183]: 1.8%; for `Cc1ncc(C(=O)Nc2cc(C(C)(C)C)on2)cc1-n1cc(-c2cncc(CN3CCOCC3)c2)nn1` [Example I-184]: 2.5%. The figure for `Cc1ncc(C(=O)Nc2cc(C(C)(C)C)on2)cc1-n1cc(-c2cncc(CN3CCCC3)c2)nn1` [Example I-185] is 1.7%; for `Cc1ncc(C(=O)Nc2cc(C(C)(C)C)on2)cc1-n1cc(-c2cncc(CN3CCN(C)CC3)c2)nn1` [Example I-186] it is 1.5%. With `Cc1ncc(C(=O)Nc2cc(C(C)(C)C)on2)cc1-n1cc(-c2cncc(CN(C)C)c2)nn1` [Example I-187], the remaining activity at 2 µM worked out at 4.1%. The figure for `CCN1CCN(Cc2cncc(-c3cn(-c4cc(C(=O)Nc5cc(C(C)(C)C)on5)cnc4C)nn3)c2)CC1` [Example I-188] is 1.5%.

Consider `Cc1ncc(C(=O)Nc2cc(C(C)(C)C)on2)cc1-n1cc(-c2cncc(CN3CCC(F)(F)C3)c2)nn1` [Example I-189], for which the remaining activity at 2 µM was 3.8%. As for `Cc1ncc(C(=O)Nc2cc(C(C)(C)C)on2)cc1-n1cc(-c2cncc(CN3CCN(C(C)C)CC3)c2)nn1` [Example I-190], the remaining activity at 2 µM amounted to 4.1%. The same measure for `CCN(C)Cc1cncc(-c2cn(-c3cc(C(=O)Nc4cc(C(C)(C)C)on4)cnc3C)nn2)c1` [Example I-191]: 3%; for `Cc1ncc(C(=O)Nc2cc(C(C)(C)C)on2)cc1-n1cc(-c2cncc(CN3CC[C@@H](F)C3)c2)nn1` [Example I-192]: 1.9%; for `Cc1ncc(C(=O)Nc2cc(C(C)(C)C)on2)cc1-n1cc(-c2cncc(CN3CC[C@H](F)C3)c2)nn1` [Example I-193]: 3.6%. On to `Cc1ncc(C(=O)Nc2cc(C(C)(C)C)on2)cc1-n1cc(-c2cncc(CN)c2)nn1` [Example I-194], for which the remaining activity at 2 µM was determined as 2.1%.

With `Cc1ncc(C(=O)Nc2cc(C(C)(C)C)on2)cc1-n1cc(-c2cncc(N3CCC4(CCN(C)CC4)CC3)c2)nn1` [Example I-195], the remaining activity at 2 µM amounted to 0.8%.

On to `Cc1ncc(C(=O)Nc2cc(C(C)(C)C)on2)cc1-n1cc(-c2cncc(NC3CC(N4CCN(C)CC4)C3)c2)nn1` (centres unmarked) [Example I-196], for which the remaining activity at 2 µM came to 1%. For the compound `Cc1ncc(C(=O)Nc2cc(C(C)(C)C)on2)cc1-n1cc(-c2cncc(N3CCN(CCOC(C)C)CC3)c2)nn1` [Example I-197], the remaining activity at 2 µM was 1%.

On to `Cc1ncc(C(=O)Nc2cc(C(C)(C)C)on2)cc1-n1cc(-c2cncc(N3CCN(CCF)CC3)c2)nn1` [Example I-198], for which the remaining activity at 2 µM is 1.7%. On to `Cc1ncc(C(=O)Nc2cc(C(C)(C)C)on2)cc1-n1cc(-c2cncc(NC3CCN(C(C)C)CC3)c2)nn1` [Example I-199], for which the remaining activity at 2 µM was 1.6%.

For the compound `Cc1ncc(C(=O)Nc2cc(C(C)(C)C)on2)cc1-n1cc(-c2cncc(N(C)C3CCN(C(C)C)CC3)c2)nn1` [Example I-200], the remaining activity at 2 µM worked out at 1%. The same measure for `COCCN1CCCN(c2cncc(-c3cn(-c4cc(C(=O)Nc5cc(C(C)(C)C)on5)cnc4C)nn3)c2)CC1` [Example I-201]: 1.6%; for `Cc1ncc(C(=O)Nc2cc(C(C)(C)C)on2)cc1-n1cc(-c2cncc(N3CCCN(C)CC3)c2)nn1` [Example I-202]: 1.6%. The figure for `CCC(CC)N1CCN(c2cncc(-c3cn(-c4cc(C(=O)Nc5cc(C(C)(C)C)on5)cnc4C)nn3)c2)CC1` [Example I-204] is 1%. Take `Cc1ncc(C(=O)Nc2cc(C(C)(C)C)on2)cc1-n1cc(-c2cncc(N3CCC(N4CCN(C)CC4)CC3)c2)nn1` [Example I-205]: the remaining activity at 2 µM turned out to be 0.8%. As for `Cc1ncc(C(=O)Nc2cc(C(C)(C)C)on2)cc1-n1cc(-c2cncc(N3CCC(CN4CCOCC4)CC3)c2)nn1` [Example I-206], the remaining activity at 2 µM was found to be 0.9%.
